Source: PubChem BioAssay AID1259407 (Chemical Carcinogenesis Research Information System (CCRIS), 2018)
Activity calls are given as the source filed them. How the calls were made is not given here.

Test system: CCRIS mutagenicity, Ames/micronucleus/aberration tests
Test: CCRIS mutagenicity studies
[1] = Test System: AMES SALMONELLA TYPHIMURIUM, Strain/Indicator: TA98, Metabolic Activation: NONE, Method: STANDARD PLATE
[2] = Test System: AMES SALMONELLA TYPHIMURIUM, Strain/Indicator: TA98, Metabolic Activation: RAT, LIVER, S-9, AROCLOR 1254, Method: STANDARD PLATE
[3] = Test System: AMES SALMONELLA TYPHIMURIUM, Strain/Indicator: TA100, Metabolic Activation: NONE, Method: STANDARD PLATE
[4] = Test System: AMES SALMONELLA TYPHIMURIUM, Strain/Indicator: TA100, Metabolic Activation: RAT, LIVER, S-9, AROCLOR 1254, Method: STANDARD PLATE

C=CC(=O)OCCCC
mutagenic call (Test System: AMES SALMONELLA TYPHIMURIUM, Strain/Indicator: TA98, Metabolic Activation: HAMSTER, LIVER, S-9, AROCLOR 1254 (10%), Method: PREINCUBATION): inactive; negative | mutagenic call (Test System: AMES SALMONELLA TYPHIMURIUM, Strain/Indicator: TA98, Metabolic Activation: NONE, Method: PREINCUBATION): inactive; negative | mutagenic call [1]: inactive; negative | mutagenic call (Test System: AMES SALMONELLA TYPHIMURIUM, Strain/Indicator: TA98, Metabolic Activation: RAT, LIVER, S-9, AROCLOR 1254 (10%), Method: PREINCUBATION): inactive; negative | mutagenic call [2]: inactive; negative | mutagenic call (Test System: AMES SALMONELLA TYPHIMURIUM, Strain/Indicator: TA98, Metabolic Activation: RAT, LIVER, S-9, SODIUM PHENOBARBITAL, Method: STANDARD PLATE): inactive; negative | mutagenic call (Test System: AMES SALMONELLA TYPHIMURIUM, Strain/Indicator: TA100, Metabolic Activation: HAMSTER, LIVER, S-9, AROCLOR 1254 (10%), Method: PREINCUBATION): inactive; negative | mutagenic call (Test System: AMES SALMONELLA TYPHIMURIUM, Strain/Indicator: TA100, Metabolic Activation: NONE, Method: PREINCUBATION): inactive; negative | mutagenic call [3]: inactive; negative | mutagenic call (Test System: AMES SALMONELLA TYPHIMURIUM, Strain/Indicator: TA100, Metabolic Activation: RAT, LIVER, S-9, AROCLOR 1254 (10%), Method: PREINCUBATION): inactive; negative | mutagenic call (Test System: AMES SALMONELLA TYPHIMURIUM, Strain/Indicator: TA100, Metabolic Activation: RAT, LIVER, S-9, AROCLOR 1254, Method: PREINCUBATION): inactive; negative | mutagenic call [4]: inactive; negative | mutagenic call (Test System: AMES SALMONELLA TYPHIMURIUM, Strain/Indicator: TA100, Metabolic Activation: RAT, LIVER, S-9, SODIUM PHENOBARBITAL, Method: STANDARD PLATE): inactive; negative | mutagenic call (Test System: AMES SALMONELLA TYPHIMURIUM, Strain/Indicator: TA1535, Metabolic Activation: HAMSTER, LIVER, S-9, AROCLOR 1254 (10%), Method: PREINCUBATION): inactive; negative | mutagenic call (Test System: AMES SALMONELLA TYPHIMURIUM, Strain/Indicator: TA1535, Metabolic Activation: NONE, Method: PREINCUBATION): inactive; negative | mutagenic call (Test System: AMES SALMONELLA TYPHIMURIUM, Strain/Indicator: TA1535, Metabolic Activation: NONE, Method: STANDARD PLATE): inactive; negative | mutagenic call (Test System: AMES SALMONELLA TYPHIMURIUM, Strain/Indicator: TA1535, Metabolic Activation: RAT, LIVER, S-9, AROCLOR 1254 (10%), Method: PREINCUBATION): inactive; negative | mutagenic call (Test System: AMES SALMONELLA TYPHIMURIUM, Strain/Indicator: TA1535, Metabolic Activation: RAT, LIVER, S-9, AROCLOR 1254, Method: STANDARD PLATE): inactive; negative | mutagenic call (Test System: AMES SALMONELLA TYPHIMURIUM, Strain/Indicator: TA1535, Metabolic Activation: RAT, LIVER, S-9, SODIUM PHENOBARBITAL, Method: STANDARD PLATE): inactive; negative | mutagenic call (Test System: AMES SALMONELLA TYPHIMURIUM, Strain/Indicator: TA1537, Metabolic Activation: HAMSTER, LIVER, S-9, AROCLOR 1254 (10%), Method: PREINCUBATION): inactive; negative | mutagenic call (Test System: AMES SALMONELLA TYPHIMURIUM, Strain/Indicator: TA1537, Metabolic Activation: NONE, Method: PREINCUBATION): inactive; negative | mutagenic call (Test System: AMES SALMONELLA TYPHIMURIUM, Strain/Indicator: TA1537, Metabolic Activation: NONE, Method: STANDARD PLATE): inactive; negative | mutagenic call (Test System: AMES SALMONELLA TYPHIMURIUM, Strain/Indicator: TA1537, Metabolic Activation: RAT, LIVER, S-9, AROCLOR 1254 (10%), Method: PREINCUBATION): inactive; negative | mutagenic call (Test System: AMES SALMONELLA TYPHIMURIUM, Strain/Indicator: TA1537, Metabolic Activation: RAT, LIVER, S-9, AROCLOR 1254, Method: STANDARD PLATE): inactive; negative | mutagenic call (Test System: AMES SALMONELLA TYPHIMURIUM, Strain/Indicator: TA1537, Metabolic Activation: RAT, LIVER, S-9, SODIUM PHENOBARBITAL, Method: STANDARD PLATE): inactive; negative | mutagenic call (Test System: AMES SALMONELLA TYPHIMURIUM, Strain/Indicator: TA1538, Metabolic Activation: NONE, Method: STANDARD PLATE): inactive; negative | mutagenic call (Test System: AMES SALMONELLA TYPHIMURIUM, Strain/Indicator: TA1538, Metabolic Activation: RAT, LIVER, S-9, AROCLOR 1254, Method: STANDARD PLATE): inactive; negative | mutagenic call (Test System: AMES SALMONELLA TYPHIMURIUM, Strain/Indicator: TA1538, Metabolic Activation: RAT, LIVER, S-9, SODIUM PHENOBARBITAL, Method: STANDARD PLATE): inactive; negative | mutagenic call (Test System: MOUSE LYMPHOMA, Strain/Indicator: L5178Y (TK+/TK-), Metabolic Activation: NONE, Method: SUSPENSION/PLATE): active; positive. reevaluation of results: positive | mutagenic call (Test System: MOUSE LYMPHOMA, Strain/Indicator: L5178Y (TK+/TK-), Metabolic Activation: RAT, LIVER, S-9, AROCLOR 1254, Method: SUSPENSION/PLATE): inactive; negative. reevaluation of results: negative | mutagenic call (Test System: UDS RODENT CELLS, Strain/Indicator: SHE CELL-MEDIATED, Metabolic Activation: NONE, Method: LIQUID SCINTILLATION COUNTING (THYMIDINE INCORPORATION)): inactive; negative

CCCCOCC(=O)O
mutagenic call (Test System: AMES SALMONELLA TYPHIMURIUM, Strain/Indicator: TA97A, Metabolic Activation: NONE, Method: STANDARD PLATE): inactive; negative | mutagenic call (Test System: AMES SALMONELLA TYPHIMURIUM, Strain/Indicator: TA97A, Metabolic Activation: RAT, LIVER, S-9, AROCLOR 1254, Method: STANDARD PLATE): inactive; negative | mutagenic call [1]: inactive; negative | mutagenic call [2]: inactive; negative | mutagenic call [3]: inactive; negative | mutagenic call [4]: inactive; negative | mutagenic call (Test System: AMES SALMONELLA TYPHIMURIUM, Strain/Indicator: TA102, Metabolic Activation: NONE, Method: STANDARD PLATE): inactive; negative | mutagenic call (Test System: AMES SALMONELLA TYPHIMURIUM, Strain/Indicator: TA102, Metabolic Activation: RAT, LIVER, S-9, AROCLOR 1254, Method: STANDARD PLATE): inactive; negative

CCn1c(N)nc2c3cccnc3cc(C)c21
mutagenic call (Test System: AMES SALMONELLA TYPHIMURIUM, Strain/Indicator: TA98, Metabolic Activation: RAT, LIVER, S-9, AROCLOR 1254, Method: PREINCUBATION): active; positive
